According to patent US7972848B2, “Isolation and identification of cross-reactive T cells” (Opexa Therapeutics, Inc., priority 2002, dated 2011):

Legend:
[1] = system: peripheral blood mononuclear cells (PBMC); experiment: Estimated precursor frequency of peptide-reactive and cross-reactive T cells in PBMC (proliferation assay); assay type: cell-based, human; conditions: for estimated frequency of T cells specific for the antigen: in PBMC, primed and tested with the same antigen; for estimated frequency of cross-reactive T cells (reactive to both peptides) primed by the peptide: primed by the labelled peptide
Description: The T cell responses to two synthetic peptides containing an identical core sequence of seven amino acids was measured to estimate the precursor frequency of cross-reactive T cells in PBMC. Two 13-mer peptides corresponding to residues 1-13 of HHV-6 U24 and residues 93-105 of MBP were synthesized and purified to greater than 95%. The MBP93-105 and HHV-6 (U24)1-13 peptides contain the identical core sequence of 7 amino acids with distinct flanking residues (MBP-IVTPRTPPPSQGK and HHV6-MDRPRTPPPSYSE) (SEQ ID NO: 8 and SEQ ID NO: 9, respectively).
Peripheral blood mononuclear cells (PBMC) were seeded at 3×10^5 cells per well in 96-well U-bottomed plates in the presence of the peptides of MBP93-105 or HHV-6 (U24)1-13 at 30 μg/ml or the whole MBP (40 μg/ml), respectively. A total of 24 wells were plated for each antigen. Seven days later, the cultures were tested for the reactivity to both peptides using AIM-V serum free medium (Gibco BRL, Grand Island, N.Y.) alone as a control. To this end, each culture was split into three identical aliquots and tested for the reactivity to MBP and the indicated peptides in duplicate. Two aliquots were tested for reactivity to peptide MBP93-105 and peptide HHV-6 (U24)1-13 at the same concentration of 30 μg/ml, respectively, in the presence of irradiated (6,000 rads) autologous PBMC (10^5 cells per well) as a source of antigen-presenting cells (APC). One aliquot served as a control (medium alone in the presence of APC). The reactivity of the end cultures was measured after 72 hours by proliferation assays as described in Zhang et al., “MHC restricted clonotypic depletion of human myelin basic protein by T cell vaccination,” Science 261:1451-1454 (1993), which is hereby incorporated by reference in its entirety.
According to the reactivity of the resulting T cells, they were categorized as mono-specific T cells or cross-reactive T cells. Mono-specific MBP- or HHV-6 reactive T cells were reactive only to the peptide originally used to prime the cells. Mono-specific T cells were defined as reactive to the given peptide when CPM was greater than 1,000 and exceeded CPM of the control (medium alone) and of the other peptide by at least three-fold. Cross-reactive T cells were reactive to both peptides after being originally primed with only one of the peptides. Cross-reactive T cells were defined as CPM of both peptides exceeded 1,000 and the control CPM by at least three-fold. The frequency of peptide-reactive T cells was then estimated by dividing the number of positive wells by the total number of PBMC seeded in the initial culture.

[2] = system: serum IgG antibodies; experiment: Serum antibody reactivity to the peptides by ELISA; assay type: binding, human; conditions: serum dilutions 1:50 and 1:100; MS patients compared to control subjects
Description: We further addressed whether the increased T cell responses to both peptides of HHV-6 (U24)1-13 and MBP93-105 were consistent with potential B cell sensitization to the peptides in MS patients as compared to healthy controls. To this end, serum specimens freshly obtained from the same MS patients and the control subjects were examined for specific antibody reactivity to the peptides by ELISA.
Antibody titers were determined in serum specimens by ELISA. Briefly, microtiter plates were coated overnight at 4° C. with the peptides at 5 μg/ml in a carbonate buffer (100 mM, pH 9.5). An irrelevant peptide and MBP41-59 were used as reference peptides. Non-specific binding sites were saturated with FBS-PBS for 1 hour and washed subsequently with PBS-T. Serum samples were prepared in serial dilutions (1:50, 1:100, 1:500) with FBS-PBS and 100 μl of each sample were added in duplicate wells. The rest of the procedure is the same as that described above.

[3] = target: HLA-DR (DRB1*1501) (Homo sapiens, UniProt P01903+P01911); conditions: cited from earlier work
[4] = system: MBP83-99 specific and MBP93-105 specific T cell clones; experiment: Cross-reactivity of T cell responses of MBP83-99 and MBP93-105 specific T cell clones; assay type: cell-based, human; conditions: four MBP83-99 specific and six MBP93-105 specific T cell clones; data not shown
Source text: Although the T cell recognition of MBP in MS patients is relatively heterogeneous, some regions of MBP have immunodominant properties, such as the 84-102/83-99 region and the 151-170 region of MBP. The immunodominant properties of these regions may be associated with their binding affinity to HLA-DR (DRB 1*1501) preferentially expressed in the MS population. […] Although the 93-105 region of MBP homologues and the 1-13 region of HHV-6 (U24) have an overlap of 4 amino acids (PRTP) (SEQ ID NO:11) with the 83-99 immunodominant region of MBP, the PRTP sequence alone is not sufficient to form an individual T cell epitope and is unlikely to represent the immunodominant T cell epitopes. […] However, the possibility exists that the increased T cell sensitization to MBP in MS patients may be initially triggered by the HHV-6 antigen that shares the sequence homology with MBP93-105 and later spreads to other epitopes of MBP by the mechanism known as epitope spreading.

Substance	cross-reactive T cells primed by the peptide as share of all T cells recognizing peptide MBP93-105 ([1]; MS cohort)	estimated frequency of T cells specific for the antigen ([1]; MS patients)	frequency of T cells initially primed with the whole MBP and reacted to peptide HHV-6 (U24)1-13 ([1]; MS patients, p=0.08 vs control)	frequency of T cells initially primed with the whole MBP and reacted to peptide HHV-6 (U24)1-13 ([1]; control group)	estimated frequency of T cells specific for the antigen ([1]; healthy controls)	estimated frequency of cross-reactive T cells (reactive to both peptides) primed by the peptide ([1]; healthy controls)	serum antibody titers for the peptide [2]	binding affinity to DRB1*1501 / HLA-DR [3]	cross-reactivity between T cell responses to MBP83-99 peptide and MBP93-105 peptide [4]	estimated frequency of cross-reactive T cells (reactive to both peptides) primed by the peptide ([1]; MS patients)
MDRPRTPPPSYSE (listed as Homo sapiens) [HHV-6 (U24)1-13]	greater than 50%	0.7×10^−6	0.33×10^−6	0.05×10^−6	0.32×10^−6	0.17×10^−6	elevated			
144-163: peptide corresponding to the 144-163 region of MBP (HGSKYLATASTMDHARHGFL; UniProt P02686 144-163, looked up, fragment)								highest binding affinity		
myelin basic protein [whole MBP]		0.6×10^−6			0.6×10^−6					
IVTPRTPPPSQGK (listed as Homo sapiens) [MBP93-105]		0.53×10^−6			0.19×10^−6	0.09×10^−6	elevated	does not have high binding affinity	no cross-reactivity	0.36×10^−6
84-103: peptide corresponding to the 84-103 region of MBP (DPGSRPHLIRLFSRDAPGRE; UniProt P02686 84-103, looked up, fragment)								highest binding affinity		
